Results taken from ChEMBL document CHEMBL5042526, “Design, Synthesis, and Biological Evaluation of Triazolone Derivatives as Potent PPARα/δ Dual Agonists for the Treatment of Nonalcoholic Steatohepatitis” (J Med Chem, 2022).

What was measured:
[1] = target: T1, Peroxisome proliferator-activated receptor delta (Homo sapiens, UniProt Q03181); assay: Agonist activity at PPARdelta (unknown origin)
T1 sequence (Q03181 whole entry): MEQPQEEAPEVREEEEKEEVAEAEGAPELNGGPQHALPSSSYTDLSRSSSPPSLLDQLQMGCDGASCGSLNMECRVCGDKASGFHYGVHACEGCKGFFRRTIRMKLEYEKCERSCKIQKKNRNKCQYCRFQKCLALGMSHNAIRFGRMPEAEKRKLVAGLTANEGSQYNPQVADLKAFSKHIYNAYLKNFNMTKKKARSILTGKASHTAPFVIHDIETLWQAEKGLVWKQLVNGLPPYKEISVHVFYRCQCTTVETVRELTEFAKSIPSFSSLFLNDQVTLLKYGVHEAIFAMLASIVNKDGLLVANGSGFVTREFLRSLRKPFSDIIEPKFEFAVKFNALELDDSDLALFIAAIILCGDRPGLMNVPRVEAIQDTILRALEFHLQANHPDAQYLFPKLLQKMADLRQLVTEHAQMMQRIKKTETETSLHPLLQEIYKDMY

[2] = target: T2, Peroxisome proliferator-activated receptor gamma (Homo sapiens, UniProt P37231); assay: Agonist activity at PPARgamma (unknown origin)
T2 sequence (P37231 whole entry): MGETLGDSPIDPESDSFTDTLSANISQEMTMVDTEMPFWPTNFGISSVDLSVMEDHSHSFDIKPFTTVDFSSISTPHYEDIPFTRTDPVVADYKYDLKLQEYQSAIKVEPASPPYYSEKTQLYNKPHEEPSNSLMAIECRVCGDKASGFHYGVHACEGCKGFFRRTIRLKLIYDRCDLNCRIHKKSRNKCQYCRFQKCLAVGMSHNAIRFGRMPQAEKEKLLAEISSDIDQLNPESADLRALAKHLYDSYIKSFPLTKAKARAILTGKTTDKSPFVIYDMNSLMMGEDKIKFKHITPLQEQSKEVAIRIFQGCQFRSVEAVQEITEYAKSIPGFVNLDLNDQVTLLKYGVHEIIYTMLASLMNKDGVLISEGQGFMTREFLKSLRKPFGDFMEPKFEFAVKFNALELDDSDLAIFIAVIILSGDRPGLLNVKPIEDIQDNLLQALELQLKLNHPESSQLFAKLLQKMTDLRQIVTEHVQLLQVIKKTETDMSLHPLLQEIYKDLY

[3] = target: T3, Peroxisome proliferator-activated receptor delta (Homo sapiens) (UniProt Q03181); assay: Agonist activity at PPARdelta (unknown origin) assessed as maximal activation at 10 nM relative to control; conditions: filed as agonist
T3 sequence (whole entry): T1 sequence (Q03181 whole entry)

[4] = target: T4, Peroxisome proliferator-activated receptor gamma (Homo sapiens) (UniProt P37231); assay: Agonist activity at PPARgamma (unknown origin) assessed as maximal activation at 10 nM relative to control; conditions: filed as agonist
T4 sequence (whole entry): T2 sequence (P37231 whole entry)

[5] = target: T5, Peroxisome proliferator-activated receptor alpha (Homo sapiens) (UniProt Q07869); assay: Agonist activity at PPARalpha (unknown origin) assessed as maximal activation at 10 nM relative to control; conditions: filed as agonist
T5 sequence (whole entry): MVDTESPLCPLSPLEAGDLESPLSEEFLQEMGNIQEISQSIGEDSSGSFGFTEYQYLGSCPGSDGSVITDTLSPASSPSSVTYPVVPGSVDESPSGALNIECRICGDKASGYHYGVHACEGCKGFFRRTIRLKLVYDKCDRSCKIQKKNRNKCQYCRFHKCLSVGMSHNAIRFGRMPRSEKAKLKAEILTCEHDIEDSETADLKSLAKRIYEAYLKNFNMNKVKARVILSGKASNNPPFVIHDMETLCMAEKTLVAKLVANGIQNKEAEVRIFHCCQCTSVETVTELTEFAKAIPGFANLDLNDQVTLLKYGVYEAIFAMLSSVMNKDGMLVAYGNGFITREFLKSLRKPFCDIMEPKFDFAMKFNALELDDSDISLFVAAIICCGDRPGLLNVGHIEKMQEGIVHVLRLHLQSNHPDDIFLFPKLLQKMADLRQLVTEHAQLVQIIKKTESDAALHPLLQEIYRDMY

[6] = target: T6, Peroxisome proliferator-activated receptor alpha (Homo sapiens, UniProt Q07869); assay: Agonist activity at PPARalpha (unknown origin)
T6 sequence (Q07869 whole entry): T5 sequence (whole entry)

[7] = target: T3, Peroxisome proliferator-activated receptor delta (Homo sapiens); conditions: filed as agonist, dose 10.0 nM
[8] = target: T4, Peroxisome proliferator-activated receptor gamma (Homo sapiens); conditions: filed as agonist, dose 10.0 nM
[9] = target: T5, Peroxisome proliferator-activated receptor alpha (Homo sapiens); conditions: filed as agonist, dose 10.0 nM
Description: Agonist activity at PPARalpha (unknown origin) assessed as maximal activation at 10 nM relative to GW7647

[10] = Intrinsic clearance in human liver microsomes at 1 uM measured upto 60 mins by LC-MS/MS-11 analysis; type: ADME, Microsome; conditions: read-out: CLH
[11] = Microsomal stability in human liver microsomes assessed as terminal elimination half life at 1 uM measured upto 60 mins by LC-MS/MS-11 analysis; type: ADME, Microsome

EC50 [1] [nM] | EC50 [2] [nM] | EC50 [6] [nM] | Emax [7] [%] | Emax [8] [%] | Emax [9] [%] | Compound | further results
24.2 | 2750 | 65.1 |  |  |  | Cc1cc(Cc2cc(-c3ccc(Br)cc3)on2)cc(C)c1OC(C)(C)C(=O)O | Emax [3]: 75%; Emax [4]: 118%; Emax [5]: 135%
> 5000 | > 5000 |  |  |  |  | Cc1cc(Cn2ncn(-c3ccc(S(C)(=O)=O)cc3)c2=O)cc(C)c1OC(C)(C)C(=O)O | 
 |  |  | 107 | 114 | 120 | COc1ccc(-n2cnn(Cc3cc(C)c(OC(C)(C)C(=O)O)c(C)c3)c2=O)cc1 | 
 |  | 59.1 |  |  |  | CCc1cc(Cn2ncn(-c3ccc(C(F)(F)F)cc3)c2=O)cc(CC)c1OC(C)(C)C(=O)O | 
> 5000 | 3790 | > 5000 |  | 84 |  | Cc1cc(Cn2ncn(-c3ccccc3C(F)(F)F)c2=O)cc(C)c1OC(C)(C)C(=O)O | 
 | > 5000 |  | 105 |  | 102 | CC(C)(Oc1ccc(Cn2ncn(-c3ccc(OC(F)(F)F)cc3)c2=O)cc1F)C(=O)O | 
1.7 |  |  |  |  |  | Cc1cc(Cn2ncn(-c3ccc(C(F)(F)F)cc3)c2=O)cc(C)c1OC(C)(C)C(=O)O | CLint scaled at 1 µM [10]: 3.6 mL/min/kg; half-life at 1 µM [11]: > 2 h
 | > 5000 |  | 118 |  | 136 | CC(C)(Oc1ccc(Cn2ncn(-c3ccc(C(F)(F)F)cc3)c2=O)cc1F)C(=O)O | 
 |  |  |  |  |  | CC(C)(Oc1c(Cl)cc(Cn2ncn(-c3ccc(C(F)(F)F)cc3)c2=O)cc1Cl)C(=O)O | CLint scaled at 1 µM [10]: 10.3 mL/min/kg; half-life at 1 µM [11]: > 2 h
 | > 5000 |  |  |  |  | CC(C)(Oc1ccc(Cn2ncn(-c3ccc(C(F)(F)F)cc3)c2=O)cc1)C(=O)O | 
> 5000 | > 5000 | > 5000 |  |  |  | Cc1cc(-n2ncn(-c3ccc(C(F)(F)F)cc3)c2=O)cc(C)c1OC(C)(C)C(=O)O | 
 |  |  |  |  |  | CSc1ccc(C(=O)/C=C/c2cc(C)c(OC(C)(C)C(=O)O)c(C)c2)cc1 [ELAFIBRANOR] | CLint scaled at 1 µM [10]: 116 mL/min/kg; Emax [3]: 52%; Emax [4]: 115%; half-life at 1 µM [11]: > 2 h; Emax [5]: 82%
28.5 | > 5000 | 7.6 | 129 |  | 110 | Cc1cc(Cn2ncn(-c3ccc(OC(F)(F)F)cc3)c2=O)cc(Cl)c1OC(C)(C)C(=O)O | 
14.7 |  | 8.6 | 81 | 76 | 162 | Cc1cc(Cn2ncn(-c3ccc(C(F)(F)F)cc3)c2=O)cc(Cl)c1OC(C)(C)C(=O)O | CLint scaled at 1 µM [10]: 3.96 mL/min/kg; half-life at 1 µM [11]: > 2 h
 | 3090 | 44.4 | 74 | 125 | 129 | CCc1cc(Cn2ncn(-c3ccc(OC(F)(F)F)cc3)c2=O)cc(CC)c1OC(C)(C)C(=O)O | 
 | > 5000 |  |  |  |  | CC(C)(Oc1c(F)cc(Cn2ncn(-c3ccc(C(F)(F)F)cc3)c2=O)cc1F)C(=O)O | 
 |  |  | 97 | 110 | 141 | Cc1cc(Cn2ncn(-c3ccc(OC(F)(F)F)cc3)c2=O)ccc1OC(C)(C)C(=O)O | 
> 5000 | > 5000 | > 5000 |  |  |  | Cc1cc(Cn2ncn(-c3ccc(C#N)cc3)c2=O)cc(C)c1OC(C)(C)C(=O)O | 

EC50 [1] [nM] | EC50 [2] [nM] | EC50 [6] [nM] | Emax [7] [%] | Emax [8] [%] | Emax [9] [%] | Compound | further results
 |  |  | 97 | 99 | 150 | CC(C)(Oc1ccc(Cn2ncn(-c3ccc(C(F)(F)F)cc3)c2=O)cc1Cl)C(=O)O | 
 |  | 7.5 |  |  |  | Cc1cc(Cn2ncn(-c3ccc(C(C)C)cc3)c2=O)cc(C)c1OC(C)(C)C(=O)O | 
21.6 |  |  |  |  |  | Cc1cc(Cn2ncn(-c3ccc(Br)cc3)c2=O)cc(C)c1OC(C)(C)C(=O)O | CLint scaled at 1 µM [10]: 1.45 mL/min/kg; half-life at 1 µM [11]: > 2 h
1.4 |  |  |  |  |  | Cc1cc(Cn2ncn(-c3ccc(C(F)(F)F)cc3)c2=O)cc(C(F)(F)F)c1OC(C)(C)C(=O)O | CLint scaled at 1 µM [10]: 2.7 mL/min/kg; half-life at 1 µM [11]: > 2 h
2960 | 559 | 3060 |  |  |  | O=C(O)CCCc1cc2cc(Cl)ccc2n1S(=O)(=O)c1ccc2ncsc2c1 [LANIFIBRANOR] | Emax [3]: 89%; Emax [4]: 119%; Emax [5]: 65%
 |  |  | 95 | 67 | 111 | CC(C)(Oc1ccc(Cn2ncn(-c3ccc(OC(F)(F)F)cc3)c2=O)cc1Cl)C(=O)O | 
 | > 5000 | 6.8 | 118 |  | 153 | CC(C)(Oc1c(Cl)cc(Cn2ncn(-c3ccc(OC(F)(F)F)cc3)c2=O)cc1Cl)C(=O)O | 
 | > 5000 |  | 72 |  | 78 | Cc1cc(CCCn2ncn(-c3ccc(C(F)(F)F)cc3)c2=O)cc(C)c1OC(C)(C)C(=O)O | 
 |  |  | 114 | 180 | 126 | Cc1cc(Cn2ncn(-c3ccc(Cl)cc3)c2=O)cc(C)c1OC(C)(C)C(=O)O | 
 |  | 14.2 | 99 | 149 | 98 | CCc1ccc(-n2cnn(Cc3cc(C)c(OC(C)(C)C(=O)O)c(C)c3)c2=O)cc1 | CLint scaled at 1 µM [10]: 4.68 mL/min/kg; half-life at 1 µM [11]: > 2 h
 | > 5000 |  | 113 |  | 99 | CC(C)(Oc1c(F)cc(Cn2ncn(-c3ccc(OC(F)(F)F)cc3)c2=O)cc1F)C(=O)O | 
 | > 5000 | 32.6 | 81 |  | 79 | CCOc1ccc(-n2cnn(Cc3cc(C)c(OC(C)(C)C(=O)O)c(C)c3)c2=O)cc1 | 
5.6 |  |  |  |  |  | Cc1cc(Cn2ncn(-c3ccc(OC(F)(F)F)cc3)c2=O)cc(C(F)(F)F)c1OC(C)(C)C(=O)O | CLint scaled at 1 µM [10]: 0.09 mL/min/kg; half-life at 1 µM [11]: > 2 h
 | > 5000 |  | 72 |  | 69 | Cc1cc(OCn2ncn(-c3ccc(C(F)(F)F)cc3)c2=O)cc(C)c1OC(C)(C)C(=O)O | 
 | 865 |  |  |  |  | Cc1cc(Cn2ncn(-c3ccccc3)c2=O)cc(C)c1OC(C)(C)C(=O)O | 
 | > 5000 |  | 71 |  | 109 | CC(C)(Oc1ccc(Cn2ncn(-c3ccc(OC(F)(F)F)cc3)c2=O)cc1)C(=O)O | 
 |  |  | 160 | 70 | 130 | CC(C)(Oc1ccc(Cn2ncn(-c3ccc(OC(F)(F)F)cc3)c2=O)cc1OC(F)(F)F)C(=O)O | 
 |  |  | 87 | 87 | 114 | Cc1ccc(-n2cnn(Cc3cc(C)c(OC(C)(C)C(=O)O)c(C)c3)c2=O)cc1 | 
